Source: patent publication US20260183405A1, “SMALL MOLECULE-DRUG-CONJUGATES CLEAVABLE IN A TUMOR MICROENVIRONMENT” (priority 2022, published 2026)
Read-outs that look alike come from different tables or passages of the source.

Legend:
in vitro = conditions: human, Caco-2
Procedure: (§1) Caco-2: The cell permeability of a substance can be investigated by means of in vitro testing in a flux assay using Caco-2 cells [M. D. Troutman and D. R. Thakker, Pharm. Res. 20 (8), 1210-1224 (2003)]. For this purpose, the cells were cultured for 15-16 days on 24-well filter plates. For the determination of permeation, the respective test substance was applied in a HEPES buffer to the cells either apically (A) or basally (B) and incubated for 2 hours. After 0 hours and after 2 hours, samples were taken from the cis and trans compartments. The samples were separated by HPLC (Agilent 1200, Böblingen, Germany) using reverse phase columns. The HPLC system was coupled via a Turbo Ion Spray Interface to a Triple Quadropol mass spectrometer API 4000 (AB SCIEX Deutschland GmbH, Darmstadt, Germany). The permeability was evaluated on the basis of a Papp value, which was calculated using the formula published by Schwab et al. [D. Schwab et al., J. Med. Chem. 46, 1716-1725 (2003)]. A substance was classified as actively transported when the ratio of Papp (B-A) to Papp (A-B) (efflux ratio) was >2 or <0.5. […] In Table 2, reference compounds are provided for comparison.

Caco-2 cells = assay: Caco-2 flux assay for cellular permeability; conditions: for Caco-2 Flux Papp A-B [nm/s]: Caco-2 cells, apical to basal, 2 hours incubation; for Caco-2 Flux Efflux ratio: ratio Papp (B-A) to Papp (A-B), actively transported when >2 or <0.5, 0.5-2 not actively transported
Procedure: as §1

HT29 = assay: Cytotoxicity in vitro in the presence and absence of elastase (MTT assay); assay type: cell-based; conditions: HT29 cells, 72 h incubation
Procedure: (§2) Cultivation of cells was performed according to standard procedures with the media recommended by the provider. The cells, in a total volume of 100 μL, were seeded in a 96-well plate with a white bottom (#3610). After a 24 h incubation period at 37° C. and 5% CO2, the medium was exchanged by adding 90 μL fresh medium. The treatment started by adding the test compound in 10 μL of culture medium to the cells in triplicates. Concentrations ranging from 10^−5 M to 10^−13 M were chosen. Two identically treated sets of samples were prepared. One set was treated with the test compound alone, whereas to the second set the compound and 10 nM elastase (NE) was added followed by a 72 h incubation period at 37° C. and 5% CO2. The proliferation was detected using the MTT assay (ATCC). At the end of the incubation period the MTT reagent was added to all samples for 4h. Lysis of the cells followed by addition of the detergent was done overnight. The formed dye was detected at 570 nm. The proliferation of untreated but otherwise identically handled cells was defined as the 100% value. The dose response curves allowed the determination of the respective IC50 values. […]

NCI-H292 = assay: as above; assay type: cell-based; conditions: NCI-H292 cells, 72 h incubation
Procedure: as §2

SUM149PT = assay: as above; assay type: cell-based; conditions: SUM149PT cells, 72 h incubation
Procedure: as §2

786-O = assay: as above; assay type: cell-based; conditions: 786-O cells, 72 h incubation
Procedure: as §2

[1] = Pharmacokinetics in rat after intravenous administration; assay type: in vivo; conditions: plasma, male rats, intravenous bolus 0.5 mg/kg
Procedure: Male rats (n=3) were given an intravenous 0.5 mg/kg bolus dose of test article dissolved in plasma with 1% DMSO and 2% ethanol. Serial blood samples were collected up to 24 hours post-dose. Plasma was harvested from blood samples and stored frozen until sample analysis. Test article plasma concentrations were analyzed by LC/MS/MS. Pharmacokinetic parameters were calculated using non-compartmental analysis.

[2] = compound alone, read-out: IC50 without neutrophil elastase
[3] = with 10 nM elastase (NE), read-out: IC50 with neutrophil elastase

| Compound | Papp A→B at 2 h (in vitro) [×10⁻⁶ cm/s] | efflux ratio at 2 h (in vitro) | IC50 (HT29; [2]) [nM] | IC50 (HT29; [3]) [nM] | IC50 (NCI-H292; [2]) [nM] | IC50 (NCI-H292; [3]) [nM] | IC50 (SUM149PT; [2]) [nM] | IC50 (SUM149PT; [3]) [nM] | IC50 (786-O; [2]) [nM] | IC50 (786-O; [3]) [nM] | further results |
| --- | --- | --- | --- | --- | --- | --- | --- | --- | --- | --- | --- |
| CC(C)(C)[C@H](c1cc(-c2cc(F)ccc2F)cn1Cc1ccccc1)N(CCC(N)C(F)F)C(=O)CO (stereo partly drawn) | 10 to 99.9 | 0.5 to 2 | – | – | – | – | – | – | – | – | – |
| COC(=O)[C@@H](N)CCN(C(=O)CO)[C@@H](c1cc(-c2cc(F)ccc2F)cn1Cc1ccccc1)C(C)(C)C | 1 to 9.9 | > 2 | – | – | – | – | – | – | – | – | – |
| CC[C@@]1(O)C(=O)OCc2c1cc1n(c2=O)Cc2c-1nc1cc(F)c(C)c3c1c2[C@@H](NC(=O)CO)CC3 [Ref 2, DXd, reference compound] | – | – | – | – | – | – | – | – | – | – | Caco-2 Flux Papp A-B [nm/s] (Caco-2 cells): AA (AA = 1-9 nm/s); Caco-2 Flux Efflux ratio (Caco-2 cells): A (A = actively transported) |
| CCCNC(=O)Nc1cccc(S(=O)(=O)Nc2cccc([C@@H](CC(=O)O)NC(=O)Nc3ccc(NC(=O)NCCOCCOCCOCCC(=O)N[C@@H](CC(=O)O)C(=O)N4CCC[C@H]4C(=O)N[C@H](C(=O)NCCC(C)(C)C(=O)OCCCNC(=O)[C@H](Cc4ccccc4)NC(=O)[C@H](C)[C@@H](OC)[C@@H]4CCCN4C(=O)C[C@@H](OC)[C@H]([C@@H](C)CC)N(C)C(=O)[C@@H](NC(=O)[C@H](C(C)C)N(C)C)C(C)C)C(C)C)cc3)c2)c1 [Compound 31] | – | – | 10 to 99 | 0.1 to 1 | 10 to 99 | 0.1 to 1 | 10 to 99 | 0.1 to 1 | 100 to 999 | 10 to 99 | – |
| CC(C)[C@H](NC(=O)[C@@H]1CCCN1C(=O)[C@H](CC(=O)O)NC(=O)CCOCCOCCOCCNC(=O)CCC(=O)Nc1nnc(S(N)(=O)=O)s1)C(=O)N=[S@](C)(=O)Cc1cc2nc(c1)OCCCOc1cc(F)ccc1-c1cc(ncc1F)N2 (relative stereo) [Compound 10, sodium 1-{(2S)-2-(carboxylatomethyl)-4,17,20-trioxo-20-[(5-sulfamoyl-1,3,4-thiadiazol-2-yl)amino]-7,10,13-trioxa-3,16-diazaicosanan-1-oyl}-L-prolyl-N—[(R*)—{[15,19-difluoro-3,4-dihydro-2H,11H-10,6-(azeno)-12,16-(metheno)-1,5,11,13-benzodioxadiazacyclooctadecin-8-yl]methyl}(methyl)oxo-lambda6-sulfanylidene]-L-valinamide] | – | – | > 1000 | 1 to 9.9 | 100 to 999 | 1 to 9.9 | 100 to 999 | 1 to 9.9 | > 1000 | 1 to 9.9 | – |
| CCc1c2c(nc3ccccc13)-c1cc3c(c(=O)n1C2)COC(=O)[C@]3(O)CC | 10 to 99.9 | 0.5 to 2 | – | – | – | – | – | – | – | – | – |
| CCCNC(=O)Nc1cccc(S(=O)(=O)Nc2cccc([C@@H](CC(=O)O)NC(=O)Nc3ccc(NC(=O)NCCOCCOCCOCCC(=O)N[C@@H](CC(N)=O)C(=O)N4CCC[C@H]4C(=O)N[C@H](C(=O)NCCCN(C(=O)CO)[C@@H](c4cc(-c5cc(F)ccc5F)cn4Cc4ccccc4)C(C)(C)C)C(C)C)cc3)c2)c1 [Compound 16, N^2-(14-{4-[({(1R)-2-carboxy-1-[3-({3-[(propylcarbamoyl)amino]benzene-1-sulfonyl}amino)phenyl]ethyl}carbamoyl)amino]anilino}-14-oxo-4,7,10-trioxa-13-azatetradecanan-1-oyl}-L-asparaginyl-L-prolyl-N-{3-[{(1R)-1-[1-benzyl-4-(2,5-difluorophenyl)-1H-pyrrol-2-yl]-2,2-dimethylpropyl}(hydroxyacetyl)amino]propyl}-L-valinamide] | – | – | > 1000 | 1 to 9.9 | 100 to 999 | 1 to 9.9 | 100 to 999 | 0.1 to 1 | > 1000 | 1 to 9.9 | – |
| CC(C)(C)[C@H](c1cc(-c2cc(F)ccc2F)cn1Cc1ccccc1)N(CCCN)C(=O)CO | 0.1 to 0.9 | > 2 | – | – | – | – | – | – | – | – | – |
| CC[C@@]1(O)C(=O)OCc2c1cc1n(c2=O)Cc2cc3cc4c(cc3nc2-1)OCO4 [Ref 3, 10,11-methylenedioxy-camptothecin, reference compound] | – | – | – | – | – | – | – | – | – | – | Caco-2 Flux Papp A-B [nm/s] (Caco-2 cells): CC (CC = 100-999 nm/s); Caco-2 Flux Efflux ratio (Caco-2 cells): B (B = not actively transported) |
| CCCNC(=O)Nc1cccc(S(=O)(=O)Nc2cccc([C@@H](CC(=O)O)NC(=O)Nc3ccc(NC(=O)NCCOCCOCCOCCC(=O)NCCCC[C@H](NC(=O)CCOCCOCCOCCNC(=O)Nc4ccc(NC(=O)N[C@H](CC(=O)O)c5cccc(NS(=O)(=O)c6cccc(NC(=O)NCCC)c6)c5)cc4)C(=O)NCCOCCOCCOCCC(=O)N[C@@H](CC(=O)O)C(=O)N4CCC[C@H]4C(=O)N[C@H](C(=O)O[C@@H](c4ccccc4)[C@@H](C)NC(=O)[C@H](C)[C@@H](OC)[C@@H]4CCCN4C(=O)C[C@@H](OC)[C@H]([C@@H](C)CC)N(C)C(=O)[C@@H](NC(=O)[C@@H](NC)C(C)C)C(C)C)C(C)C)cc3)c2)c1 [Compound 14] | – | – | 100 to 999 | 0.1 to 1 | 10 to 99 | 0.1 to 1 | 10 to 99 | 0.1 to 1 | 100 to 999 | 1 to 9.9 | AUC [1]: 100 to 500 µg·h/mL; half-life [1]: 10 to 40 h; clearance ([1]; read-out: CL plasma): 0.02 to 0.5 mL/min/kg; Vd ([1]; read-out: VSS): 0.1 to 0.3 L/kg |
| CC[C@@]1(OC(=O)[C@@H](NC(=O)[C@@H]2CCCN2C(=O)[C@H](CC(=O)O)NC(=O)CCOCCOCCOCCNC(=O)CCC(=O)Nc2nnc(S(N)(=O)=O)s2)C(C)C)C(=O)OCc2c1cc1n(c2=O)Cc2c-1nc1cc(F)c(C)c3c1c2[C@@H](N)CC3 [Compound 12, sodium (1S,9S)-1-amino-9-ethyl-5-fluoro-4-methyl-10,13-dioxo-2,3,9,10,13,15-hexahydro-1H,12H-benzo[de]pyrano[3′,4′:6,7]indolizino[1,2-b]quinolin-9-yl 1-{(2S)-2-(carboxylatomethyl)-4,17,20-trioxo-20-[(5-sulfamoyl-1,3,4-thiadiazol-2-yl)amino]-7,10,13-trioxa-3,16-diazaicosanan-1-oyl}-L-prolyl-L-valinate] | – | – | > 1000 | 10 to 99 | 100 to 999 | 1 to 9.9 | 100 to 999 | 1 to 9.9 | 100 to 999 | 1 to 9.9 | – |
| exatecan mesylate [Ref 1, reference compound] | – | – | – | – | – | – | – | – | – | – | Caco-2 Flux Papp A-B [nm/s] (Caco-2 cells): CC (CC = 100-999 nm/s); Caco-2 Flux Efflux ratio (Caco-2 cells): B (B = not actively transported) |
| CCCNC(=O)Nc1cccc(S(=O)(=O)Nc2cccc([C@@H](CC(=O)O)NC(=O)Nc3ccc(NC(=O)NCCOCCOCCOCCC(=O)N[C@@H](CC(=O)O)C(=O)N4CCC[C@H]4C(=O)N[C@H](C(=O)OC(C)(C)CCNC(=O)[C@H](Cc4ccccc4)NC(=O)[C@H](C)[C@@H](OC)[C@@H]4CCCN4C(=O)C[C@@H](OC)[C@H]([C@@H](C)CC)N(C)C(=O)[C@@H](NC(=O)[C@H](C(C)C)N(C)C)C(C)C)C(C)C)cc3)c2)c1 [Compound 32] | – | – | 10 to 99 | 1 to 9.9 | 10 to 99 | 1 to 9.9 | 10 to 99 | 1 to 9.9 | 100 to 999 | 10 to 99 | – |
